Measurements reported in ChEMBL document CHEMBL6096658, “Discovery of Potent, Highly Selective, and Efficacious SMARCA2 Degraders” (J Med Chem, 2025).
The source made the active and inactive calls. The calls are words filed in the database; no cut-off is given here.

Legend:
[1] = target: SWI/SNF-related matrix-associated actin-dependent regulator of chromatin subfamily A member 2 (Homo sapiens, UniProt P51531); test: Binding affinity to SMARCA2 (unknown origin) incubated for 30 mins by HTRF assay
[2] = target: SWI/SNF-related matrix-associated actin-dependent regulator of chromatin subfamily A member 4 (Homo sapiens, UniProt P51532); test: Binding affinity to SMARCA4 (unknown origin) incubated for 30 mins by HTRF assay
[3] = target: von Hippel-Lindau disease tumor suppressor (Homo sapiens, UniProt P40337); test: Binding affinity to VHL (unknown origin) incubated for 30 mins by HTRF assay
[4] = target: T1, von Hippel-Lindau disease tumor suppressor/SWI/SNF-related matrix-associated actin-dependent regulator of chromatin subfamily A member 2 (Homo sapiens, UniProt P51531+P40337); test: PROTAC activity at VHL/SMARCA2 in human HT-1080 cells assessed as induction of SMARCA2 degradation incubated for 24 hrs by Nano-Glo HiBiT Lytic Detection Assay; format: cell-based
Target sequence in this assay (P51531 whole entry): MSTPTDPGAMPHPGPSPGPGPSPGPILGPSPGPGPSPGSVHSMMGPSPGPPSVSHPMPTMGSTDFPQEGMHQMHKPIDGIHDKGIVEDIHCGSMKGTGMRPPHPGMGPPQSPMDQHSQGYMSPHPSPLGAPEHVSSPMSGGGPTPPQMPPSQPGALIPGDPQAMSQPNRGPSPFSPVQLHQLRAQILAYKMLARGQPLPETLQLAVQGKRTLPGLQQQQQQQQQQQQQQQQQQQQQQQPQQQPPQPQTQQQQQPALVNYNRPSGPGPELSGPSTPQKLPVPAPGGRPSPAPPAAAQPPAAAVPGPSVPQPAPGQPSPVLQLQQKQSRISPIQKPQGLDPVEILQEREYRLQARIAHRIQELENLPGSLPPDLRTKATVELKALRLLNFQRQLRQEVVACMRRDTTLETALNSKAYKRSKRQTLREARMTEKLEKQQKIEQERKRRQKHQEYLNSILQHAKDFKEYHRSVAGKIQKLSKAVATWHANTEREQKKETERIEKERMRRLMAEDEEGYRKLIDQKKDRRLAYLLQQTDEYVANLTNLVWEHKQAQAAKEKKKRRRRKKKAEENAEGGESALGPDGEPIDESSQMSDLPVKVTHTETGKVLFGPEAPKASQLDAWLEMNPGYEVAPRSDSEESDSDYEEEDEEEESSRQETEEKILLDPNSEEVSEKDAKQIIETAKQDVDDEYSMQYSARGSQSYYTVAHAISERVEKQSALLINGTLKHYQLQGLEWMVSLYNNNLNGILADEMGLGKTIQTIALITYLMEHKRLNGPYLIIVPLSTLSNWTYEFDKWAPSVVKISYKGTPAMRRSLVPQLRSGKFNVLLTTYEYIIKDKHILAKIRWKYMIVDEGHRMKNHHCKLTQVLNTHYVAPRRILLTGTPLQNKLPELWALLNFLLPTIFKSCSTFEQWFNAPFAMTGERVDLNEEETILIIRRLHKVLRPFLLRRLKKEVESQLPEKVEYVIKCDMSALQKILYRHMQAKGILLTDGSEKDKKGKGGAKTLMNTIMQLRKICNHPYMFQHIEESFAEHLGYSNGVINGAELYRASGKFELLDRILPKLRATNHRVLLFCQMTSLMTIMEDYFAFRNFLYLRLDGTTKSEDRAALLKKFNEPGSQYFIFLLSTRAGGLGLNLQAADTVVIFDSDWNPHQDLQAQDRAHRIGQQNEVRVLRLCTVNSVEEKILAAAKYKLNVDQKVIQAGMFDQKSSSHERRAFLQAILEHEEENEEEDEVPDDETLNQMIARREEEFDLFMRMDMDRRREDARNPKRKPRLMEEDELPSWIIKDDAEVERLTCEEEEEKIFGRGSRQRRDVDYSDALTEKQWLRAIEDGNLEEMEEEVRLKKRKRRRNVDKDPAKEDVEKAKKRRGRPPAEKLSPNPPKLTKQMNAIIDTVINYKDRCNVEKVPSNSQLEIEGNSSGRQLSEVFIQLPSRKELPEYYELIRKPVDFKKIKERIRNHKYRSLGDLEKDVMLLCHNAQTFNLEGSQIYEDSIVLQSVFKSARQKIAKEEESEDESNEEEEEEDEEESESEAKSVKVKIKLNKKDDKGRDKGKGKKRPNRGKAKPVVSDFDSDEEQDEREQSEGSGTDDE
Target sequence in this assay (P40337 whole entry): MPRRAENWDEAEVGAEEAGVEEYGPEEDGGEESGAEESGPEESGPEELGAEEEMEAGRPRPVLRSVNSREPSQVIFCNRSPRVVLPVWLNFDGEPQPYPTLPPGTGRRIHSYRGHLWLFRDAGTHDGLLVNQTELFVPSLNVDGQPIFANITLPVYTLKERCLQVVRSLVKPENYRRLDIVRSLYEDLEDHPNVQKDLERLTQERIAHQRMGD

[5] = target: T1, von Hippel-Lindau disease tumor suppressor/SWI/SNF-related matrix-associated actin-dependent regulator of chromatin subfamily A member 2; test: PROTAC activity at VHL/SMARCA2 in human HT-1080 cells assessed as induction of SMARCA2 degradation by measuring maximum efficacy incubated for 6 hrs by Nano-Glo HiBiT Lytic Detection Assay relative to control; format: cell-based
Target sequence in this assay (P40337 whole entry, looked up): as the sequence (P40337 whole entry) above
Target sequence in this assay (P51531 whole entry, looked up): as the sequence (P51531 whole entry) above

[6] = target: T2, von Hippel-Lindau disease tumor suppressor/SWI/SNF-related matrix-associated actin-dependent regulator of chromatin subfamily A member 4 (Homo sapiens, UniProt P51532+P40337); test: PROTAC activity at VHL/SMARCA4 in human HT-1080 cells assessed as induction of SMARCA4 degradation incubated for 24 hrs by Nano-Glo HiBiT Lytic Detection Assay; format: cell-based
Target sequence in this assay (P51532 whole entry): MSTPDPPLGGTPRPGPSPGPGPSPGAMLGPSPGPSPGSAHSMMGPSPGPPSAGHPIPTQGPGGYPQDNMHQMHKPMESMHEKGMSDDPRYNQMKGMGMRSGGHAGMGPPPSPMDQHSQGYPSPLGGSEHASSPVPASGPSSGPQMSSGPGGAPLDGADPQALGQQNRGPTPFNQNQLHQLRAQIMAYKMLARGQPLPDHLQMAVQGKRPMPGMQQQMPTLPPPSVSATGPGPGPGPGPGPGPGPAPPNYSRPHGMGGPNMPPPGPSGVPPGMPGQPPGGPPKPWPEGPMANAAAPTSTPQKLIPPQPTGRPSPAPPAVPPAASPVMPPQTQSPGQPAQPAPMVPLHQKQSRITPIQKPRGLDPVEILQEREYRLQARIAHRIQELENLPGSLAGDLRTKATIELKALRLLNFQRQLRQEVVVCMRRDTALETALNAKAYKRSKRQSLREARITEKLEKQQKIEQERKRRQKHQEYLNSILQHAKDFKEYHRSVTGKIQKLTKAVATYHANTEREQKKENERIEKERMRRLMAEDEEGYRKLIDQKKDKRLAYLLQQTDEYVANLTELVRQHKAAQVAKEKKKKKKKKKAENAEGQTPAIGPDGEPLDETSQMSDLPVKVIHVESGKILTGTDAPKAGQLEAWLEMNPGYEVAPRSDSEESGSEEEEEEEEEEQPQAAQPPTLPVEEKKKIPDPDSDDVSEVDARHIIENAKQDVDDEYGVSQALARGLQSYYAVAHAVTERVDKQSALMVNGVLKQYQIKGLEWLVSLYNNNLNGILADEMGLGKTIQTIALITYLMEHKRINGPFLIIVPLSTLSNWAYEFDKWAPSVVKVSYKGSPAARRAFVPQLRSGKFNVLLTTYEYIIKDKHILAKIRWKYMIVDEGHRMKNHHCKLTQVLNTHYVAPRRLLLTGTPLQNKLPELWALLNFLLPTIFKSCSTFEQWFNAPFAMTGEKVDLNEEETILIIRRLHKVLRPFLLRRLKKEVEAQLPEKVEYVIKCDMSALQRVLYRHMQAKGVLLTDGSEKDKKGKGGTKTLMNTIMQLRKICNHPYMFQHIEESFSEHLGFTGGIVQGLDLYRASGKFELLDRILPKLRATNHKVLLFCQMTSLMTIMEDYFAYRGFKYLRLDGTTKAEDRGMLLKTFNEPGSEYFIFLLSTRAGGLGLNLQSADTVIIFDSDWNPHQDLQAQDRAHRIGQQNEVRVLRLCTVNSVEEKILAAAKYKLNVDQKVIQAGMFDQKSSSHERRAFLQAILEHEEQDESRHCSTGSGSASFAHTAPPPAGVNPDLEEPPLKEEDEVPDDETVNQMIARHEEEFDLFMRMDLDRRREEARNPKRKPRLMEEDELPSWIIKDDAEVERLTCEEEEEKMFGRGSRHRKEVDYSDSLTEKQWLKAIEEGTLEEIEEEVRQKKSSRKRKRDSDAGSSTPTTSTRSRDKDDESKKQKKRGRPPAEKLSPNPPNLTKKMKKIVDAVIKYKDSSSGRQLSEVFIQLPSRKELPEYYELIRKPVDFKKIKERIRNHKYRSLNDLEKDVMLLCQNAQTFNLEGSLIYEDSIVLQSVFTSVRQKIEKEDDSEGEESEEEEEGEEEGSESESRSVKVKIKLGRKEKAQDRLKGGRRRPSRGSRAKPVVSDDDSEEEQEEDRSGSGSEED
Target sequence in this assay (P40337 whole entry): as the sequence (P40337 whole entry) above

[7] = target: T2, von Hippel-Lindau disease tumor suppressor/SWI/SNF-related matrix-associated actin-dependent regulator of chromatin subfamily A member 4; test: PROTAC activity at VHL/SMARCA4 in human HT-1080 cells assessed as induction of SMARCA4 degradation by measuring maximum efficacy incubated for 6 hrs by Nano-Glo HiBiT Lytic Detection Assay relative to control; format: cell-based
Target sequence in this assay (P40337 whole entry, looked up): as the sequence (P40337 whole entry) above
Target sequence in this assay (P51532 whole entry, looked up): as the sequence (P51532 whole entry) above

[8] = Selectivity ratio of DC50 for PROTAC activity at VHL/SMARCA4 in human HT-1080 cells (unknown origin) to DC50 for VHL/SMARCA2 in human HT-1080 cells (unknown origin); format: cell-based
[9] = target: T1, von Hippel-Lindau disease tumor suppressor/SWI/SNF-related matrix-associated actin-dependent regulator of chromatin subfamily A member 2; test: Binding affinity to flag-tagged SMARCA2/VHL (unknown origin) assessed as ternary complex formation by measuring HTRF signal incubated for 120 mins by Envision reader analysis; format: protein assay
Target sequence in this assay (P40337 whole entry, looked up): as the sequence (P40337 whole entry) above
Target sequence in this assay (P51531 whole entry, looked up): as the sequence (P51531 whole entry) above

[10] = target: T1, von Hippel-Lindau disease tumor suppressor/SWI/SNF-related matrix-associated actin-dependent regulator of chromatin subfamily A member 2; test: In vivo PROTAC activity at VHL/ SMARCA2 in female BALB/c mouse xenografted with human HT-1080 cells assessed as reduction in SMARCA2 level in tumor at 1 mg/kg, iv measured after 24 hrs relative to control; format: functional, organism-based; parameters: scale not given: the % may be the effect or the level left
Target sequence in this assay (P40337 whole entry, looked up): as the sequence (P40337 whole entry) above
Target sequence in this assay (P51531 whole entry, looked up): as the sequence (P51531 whole entry) above

NCI-H1373 = test: Antiproliferative activity against human NCI-H1373 cells assessed as inhibition of cell proliferation incubated for 6 days by Cell Titer Glo assay; format: functional, cell-based; conditions: time 6.0 day
NCI-H838 [11] = test: Antiproliferative activity against human NCI-H838 cells assessed as cell growth inhibition incubated for 6 days by Cell Titer Glo assay; format: functional; conditions: NCI-H838, 144 h, time 6 day
Calu-6 [12] = test: Antiproliferative activity against human Calu-6 cells assessed as cell growth inhibition incubated for 6 days by Cell Titer Glo assay; format: functional; conditions: Calu-6, 144 h, time 6 day
[13] = Metabolic stability in female BALB/c mouse microsomes assessed as half life administered intravenously; format: ADME; conditions: route iv
Calu-6 [14] = test: Antiproliferative activity against human Calu-6 cells assessed as inhibition of cell proliferation incubated for 6 days by Cell Titer Glo assay; format: functional, cell-based; conditions: time 6.0 day
HT-1080 = test: Antiproliferative activity against human HT-1080 cells assessed as inhibition of cell proliferation incubated for 6 days by Cell Titer Glo assay; format: functional, cell-based; conditions: time 6.0 day
NCI-H838 [15] = test: Antiproliferative activity against human NCI-H838 cells assessed as inhibition of cell proliferation incubated for 6 days by Cell Titer Glo assay; format: functional, cell-based; conditions: time 6.0 day
NCI-H1573 = test: Antiproliferative activity against human NCI-H1573 cells assessed as inhibition of cell proliferation incubated for 6 days by Cell Titer Glo assay; format: functional, cell-based; conditions: time 6.0 day
NCI-H1568 = test: Antiproliferative activity against human NCI-H1568 cells assessed as inhibition of cell proliferation incubated for 6 days by Cell Titer Glo assay; format: functional, cell-based; conditions: time 6.0 day
[16] = target: T1, von Hippel-Lindau disease tumor suppressor/SWI/SNF-related matrix-associated actin-dependent regulator of chromatin subfamily A member 2; test: In vivo PROTAC activity at VHL/ SMARCA2 in female BALB/c mouse xenografted with human HT-1080 cells assessed as reduction in SMARCA2 level in tumor at 10 mg/kg, iv measured after 24 hrs relative to control; format: functional, organism-based; parameters: scale not given: the % may be the effect or the level left
Target sequence in this assay (P40337 whole entry, looked up): as the sequence (P40337 whole entry) above
Target sequence in this assay (P51531 whole entry, looked up): as the sequence (P51531 whole entry) above

[17] = target: T2, von Hippel-Lindau disease tumor suppressor/SWI/SNF-related matrix-associated actin-dependent regulator of chromatin subfamily A member 4; test: In vivo PROTAC activity at VHL/ SMARCA4 in female BALB/c mouse xenografted with human HT-1080 cells at 1 mg/kg, iv measured after 24 hrs relative to control; format: functional, organism-based
Target sequence in this assay (P40337 whole entry, looked up): as the sequence (P40337 whole entry) above
Target sequence in this assay (P51532 whole entry, looked up): as the sequence (P51532 whole entry) above

[18] = target: T2, von Hippel-Lindau disease tumor suppressor/SWI/SNF-related matrix-associated actin-dependent regulator of chromatin subfamily A member 4; test: In vivo PROTAC activity at VHL/ SMARCA4 in female BALB/c mouse xenografted with human HT-1080 cells at 10 mg/kg, iv measured after 24 hrs relative to control; format: functional, organism-based
Target sequence in this assay (P40337 whole entry, looked up): as the sequence (P40337 whole entry) above
Target sequence in this assay (P51532 whole entry, looked up): as the sequence (P51532 whole entry) above

Chain of SWI/SNF-related matrix-associated actin-dependent regulator of chromatin subfamily A member 2 (P51531 whole entry): as the sequence (P51531 whole entry) above
Chain of von Hippel-Lindau disease tumor suppressor (P40337 whole entry): as the sequence (P40337 whole entry) above
Chain of SWI/SNF-related matrix-associated actin-dependent regulator of chromatin subfamily A member 4 (P51532 whole entry): as the sequence (P51532 whole entry) above

Structure (SMILES) | IC50 [1] | IC50 [2] | IC50 [3] | DC50 [4] | Emax [5] | DC50 [6] | Emax [7] | Ratio [8] | also measured
Cc1ncsc1-c1ccc([C@H](C)NC(=O)[C@@H]2C[C@@H](O)CN2C(=O)[C@@H](c2cc(CN3CCC(c4ccc5c(c4)C(C)(C)c4nc(=O)c6c(Cl)cccc6n4-5)CC3)no2)C(C)C)cc1 | 350 nM | 500 nM |  |  |  |  |  |  | 
Cc1ncsc1-c1ccc([C@H](C)NC(=O)[C@@H]2C[C@@H](O)CN2C(=O)[C@@H](c2cc(OCCN3CCC(c4ccc5c(c4)C(C)(C)c4nc(=O)c6c(Cl)cccc6n4-5)CC3)no2)C(C)C)cc1 | 88 nM | 79 nM | 22 nM | 2.1 nM | 96% | 31 nM | 80% | 15 | 
Cc1ncsc1-c1ccc([C@H](C)NC(=O)[C@@H]2C[C@@H](O)CN2C(=O)[C@@H](c2cc(N3CCC(CN4CCC(c5cccc6c5C(C)(C)c5nc(=O)c7c(Cl)cccc7n5-6)CC4)CC3)no2)C(C)C)cc1 | 150 nM | 83 nM | 15 nM | 4.4 nM | 94% | 35 nM | 84% | 8 | Activity [9]: Active; Smarca2-Vhl Shows 30% Higher Auc Compared To Smarca4-Vhl Was Observed
Cc1ncsc1-c1ccc([C@H](C)NC(=O)[C@@H]2C[C@@H](O)CN2C(=O)[C@@H](c2cc(OC3CCC(N4CCC(c5ccc6c(c5)C(C)(C)c5nc(=O)c7c(Cl)cccc7n5-6)CC4)CC3)no2)C(C)C)cc1 (stereo partly drawn) | 47 nM | 43 nM | 9.3 nM | 0.16 nM | 99% | 1.2 nM | 97% | 7.5 | 
Cc1ncsc1-c1ccc([C@H](C)NC(=O)[C@@H]2C[C@@H](O)CN2C(=O)[C@H](C(C)C)n2cc([C@H]3CC[C@H](CN4CCC(c5ccc6c(c5)C(C)(C)c5nc(=O)c7c(Cl)cccc7n5-6)CC4)CC3)nn2)cc1 |  |  | 2.1 nM | 0.22 nM | 98% | 0.85 nM | 97% | 4 | Activity [10]: 94%; Activity (NCI-H1373): Active; GI50 (NCI-H838 [11]): 3 nM; GI50 (Calu-6 [12]): 280 nM; half-life [13]: 5 h; Activity (Calu-6 [14]): Active; Activity (HT-1080): Active; Activity (NCI-H838 [15]): Active; Activity (NCI-H1573): Active; Activity (NCI-H1568): Active; Activity [16]: > 95%; Activity [17]: 54%; Activity [18]: 93%
Cc1ncsc1-c1ccc([C@H](C)NC(=O)[C@@H]2C[C@@H](O)CN2C(=O)[C@@H](NC(=O)[C@H]2CC[C@H](CN3CCC(c4ccc5c(c4)-n4c(nc(=O)c6c(Cl)cccc64)C5(C)C)CC3)CC2)C(C)(C)C)cc1 |  |  | 370 nM | 10 nM | 92% | > 1000 nM | 25% | > 100 | 
Cc1ncsc1-c1ccc([C@H](C)NC(=O)[C@@H]2C[C@@H](O)CN2C(=O)[C@@H](c2cc(OCCCN3CCC(c4ccc5c(c4)C(C)(C)c4nc(=O)c6c(Cl)cccc6n4-5)CC3)no2)C(C)C)cc1 | 60 nM | 83 nM | 17 nM | 1.4 nM | 98% | 26 nM | 92% | 18 | 
CC1(C)c2c(C3CCNCC3)cccc2-n2c1nc(=O)c1c(Cl)cccc12 | 68 nM | 170 nM |  |  |  |  |  |  | 
O=c1nc2n(c3cccc(Cl)c13)-c1ccc(C3CCNCC3)cc1C21CCNCC1 | 3500 nM | 9100 nM |  |  |  |  |  |  | 
Cc1ncsc1-c1ccc([C@H](C)NC(=O)[C@@H]2C[C@@H](O)CN2C(=O)[C@@H](NC(=O)[C@H]2CC[C@H](CN3CCC(c4ccc5c(c4)-n4c(nc(=O)c6c(Br)cccc64)C5(C)C)CC3)CC2)C(C)(C)C)cc1 |  |  | 280 nM | 6.4 nM | 93% | > 1000 nM | 34% | > 100 | GI50 (NCI-H838 [11]): 40 nM; GI50 (Calu-6 [12]): > 1000 nM
Cc1ncsc1-c1ccc([C@H](C)NC(=O)[C@@H]2C[C@@H](O)CN2C(=O)[C@@H](c2cc(OCCCCN3CCC(c4ccc5c(c4)C(C)(C)c4nc(=O)c6c(Cl)cccc6n4-5)CC3)no2)C(C)C)cc1 | 70 nM | 97 nM | 16 nM | 1.9 nM | 98% | 22 nM | 93% | 12 | 
Cc1ncsc1-c1ccc([C@H](C)NC(=O)[C@@H]2C[C@@H](O)CN2C(=O)[C@@H](c2cc(OCC3(CN4CCC(c5ccc6c(c5)C(C)(C)c5nc(=O)c7c(Cl)cccc7n5-6)CC4)CC3)no2)C(C)C)cc1 | 72 nM | 100 nM | 15 nM | 13 nM | 87% | 280 nM | 53% | 22 | 
O=c1nc2n(c3cccc(Cl)c13)-c1ccc(C3CCNCC3)cc1C21CCCCCC1 | 53 nM | 150 nM |  |  |  |  |  |  | 

More lines, main results first:

IC50 [1] | IC50 [2] | IC50 [3] | DC50 [4] | Emax [5] | DC50 [6] | Emax [7] | Structure (SMILES) | Ratio [8] | also measured
2.8 nM | 5.5 nM |  |  |  |  |  | CC1(C)c2cc(C3CCNCC3)ccc2-n2c1nc(=O)c1c(Br)cccc12 |  | 
15 nM | 38 nM |  |  |  |  |  | CC1(C)c2ccc(C3CCNCC3)cc2-n2c1nc(=O)c1c(Cl)cccc12 |  | 
12 nM | 36 nM |  |  |  |  |  | CC1(C)c2cc(C3CCNCC3)ccc2-n2c1nc(=O)c1c(Cl)cccc12 |  | 
4.6 nM | 10 nM |  |  |  |  |  | O=c1nc2n(c3cccc(Br)c13)-c1ccc(C3CCNCC3)cc1C21CCCCC1 |  | 
16 nM | 27 nM | 6.4 nM | 0.61 nM | 98% | 3.9 nM |  | Cc1ncsc1-c1ccc([C@H](C)NC(=O)[C@@H]2C[C@@H](O)CN2C(=O)[C@@H](c2cc(N3CCC(CN4CCC(c5ccc6c(c5)C(C)(C)c5nc(=O)c7c(Cl)cccc7n5-6)CC4)CC3)no2)C(C)C)cc1 |  | 
17 nM | 40 nM |  |  |  |  |  | O=c1nc2n(c3cccc(Cl)c13)-c1cc(C3CCNCC3)ccc1C21CCCCC1 |  | 
8.8 nM | 18 nM |  |  |  |  |  | O=c1nc2n(c3cccc(Cl)c13)-c1ccc(C3CCNCC3)cc1C21CCCCC1 |  | 
13 nM | 24 nM |  |  |  |  |  | O=c1nc2n(c3cccc(Cl)c13)-c1ccc(C3CCNCC3)cc1C21CCCC1 |  | 
34 nM | 110 nM | 6.2 nM | 1.7 nM | 97% | 12 nM | 92% | Cc1ncsc1-c1ccc([C@H](C)NC(=O)[C@@H]2C[C@@H](O)CN2C(=O)[C@@H](c2cc(OCC(C)CN3CCC(c4ccc5c(c4)-n4c(nc(=O)c6c(Cl)cccc64)C5(C)C)CC3)no2)C(C)C)cc1 (stereo partly drawn) | 7 | 
